A value given as a limit tells only on which side of the number the result lay.

The first assay addresses c-Myc template DNA (c-myc quadruplex). The experiment in a line: Quadruplex binding / stop assay (Taq polymerase arrest, capillary electrophoresis). To be noted: read-out: S DATA; Table 1D, stop assay data.
As to `CN1CCCC1CCNC(=O)c1cn2c3c(c(NC4CCOC(C)(C)C4)c(F)cc3c1=O)Oc1cc3ccccc3cc1-2` (stereo not drawn) [compound 1751], the IC50 is greater than 15 µM.
Still for that read-out and setting: with `C[C@H](O)CNC(=O)c1cn2c3c(c(N4CCC(N)C4)c(F)cc3c1=O)Oc1cc3ccccc3cc1-2` (stereo partly drawn) [compound 1709] the figure was greater than 15 µM; with `CN1CCCC1CCNC(=O)c1cn2c3c(c(N(C)C4CCNC4)c(F)cc3c1=O)Oc1cc3ccccc3cc1-2` (stereo not drawn) [compound 1502], 0.75 µM; with `CN1CCCC1CCNC(=O)c1cn2c3c(c(F)c(F)cc3c1=O)Oc1cc3ccccc3cc1-2` (stereo not drawn) [compound 1739], 3.3 µM.
Same read-out and setting: the result for `CC(C)N1CCN(c2c(F)cc3c(=O)c(C(=O)NCCN4CCCC4)cn4c3c2Oc2ccc(Cl)cc2-4)CC1` [compound 1798] reads 6.6 µM; that for `CN(C)CCCCNC(=O)c1cn2c3c(c(N4CCC(NC(=O)OC(C)(C)C)C4)c(F)cc3c1=O)Oc1ccccc1-2` (stereo not drawn) [compound 1588], greater than 15 µM; that for `O=C(NCCN1CCCC1)c1cn2c3c(c(NCC4CCCO4)c(F)cc3c1=O)Oc1cc(Cl)ccc1-2` (stereo not drawn) [compound 1794], greater than 15 µM.
`CN(C)CC(C)(C)CNC(=O)c1cn2c3c(c(NCCCN4CCN(C)CC4)c(F)cc3c1=O)Oc1ccccc1-2` [compound 1580]: the IC50 was greater than 15 µM.
As to `CN1CCCC1CCNC(=O)c1cn2c3c(c(N4CCC(c5cnccn5)C4)c(F)cc3c1=O)Oc1ccc(C#N)cc1-2` (stereo not drawn) [compound 1776], the IC50 is 6.8 µM.
On the same count and under the same terms, the result for `CCOCCCNC(=O)c1cn2c3c(c(N4CCC(N)C4)c(F)cc3c1=O)Oc1cc3ccccc3cc1-2` (stereo not drawn) [compound 1697] reads greater than 15 µM; that for `CN1CCN(CCCNc2c(F)cc3c(=O)c(C(=O)N4CCC(N5CCCC5)CC4)cn4c3c2Oc2ccccc2-4)CC1` [compound 1581], greater than 15 µM.
Same read-out and setting: the result for `CC(C)N1CCN(c2c(F)cc3c(=O)c(C(=O)N4CCC(N)C4)cn4c3c2Oc2ccccc2-4)CC1` (stereo not drawn) [compound 1627] reads greater than 15 µM; that for `CN1CCCC1CCNC(=O)c1cn2c3c(c(NC4CN5CCC4CC5)c(F)cc3c1=O)Oc1cc3ccccc3cc1-2` (stereo not drawn) [compound 1495], 0.75 µM; that for `CN1CCCC1CCNC(=O)c1cn2c3c(c(NCc4ccccc4N4CCCCC4)c(F)cc3c1=O)Oc1cc3ccccc3cc1-2` (stereo not drawn) [compound 1509], greater than 15 µM.
The same measure, in the same setting: with `CC(C)N1CCN(c2c(F)cc3c(=O)c(C(=O)NCCN4CCCC4)cn4c3c2Oc2cccnc2-4)CC1` [compound 1801] the figure was 8.2 µM; with `COc1ccc(CCNc2c(F)cc3c(=O)c(C(=O)N(C)CCc4ccccn4)cn4c3c2Oc2cc3ccccc3cc2-4)cc1OC` [compound 1759], 10 µM; with `O=C(NCCN1CCOCC1)c1cn2c3c(c(NCCCN4CCOCC4)ccc3c1=O)Oc1cc3ccccc3cc1-2` [compound 1533], greater than 15 µM.
For the compound `NC1CCN(c2c(F)cc3c(=O)c(C(=O)NCCN4CCOCC4)cn4c3c2Oc2ccccc2-4)C1` (stereo not drawn) [compound 1620], the IC50 was greater than 15 µM.
Same read-out and setting: with `O=C(NCCN1CCCC1)c1cn2c3c(c(N4CC5CCCNC5C4)ccc3c1=O)Oc1ccccc1-2` (stereo not drawn) [compound 1731] the figure was greater than 15 µM; with `CC1CCCN(CCCNC(=O)c2cn3c4c(c(N5CCC(N)C5)c(F)cc4c2=O)Oc2cc4ccccc4cc2-3)C1` (stereo not drawn) [compound 1712], greater than 15 µM.
As to `CN(C)CC(C)(C)CNC(=O)c1cn2c3c(c(NCCN4CCOCC4)c(F)cc3c1=O)Oc1ccccc1-2` [compound 1612], the IC50 was greater than 15 µM.
On to `CN1CCCC1CCNC(=O)c1cn2c3c(c(NC(CO)CC4CCCCC4)c(F)cc3c1=O)Oc1cc3ccccc3cc1-2` (stereo not drawn) [compound 1748], for which the IC50 is greater than 15 µM.
Still for that read-out and setting: with `O=C(NCCCN1CCOCC1)c1cn2c3c(c(NCCCN4CCOCC4)c(F)cc3c1=O)Oc1ccccc1-2` [compound 1560] the figure was greater than 15 µM.

Staying with this assay, now noted: read-out: Stop Data c-Myc μM; concentration at which 50% of the DNA was arrested (arrested:full-length 1:1).
Take `CC(C)(C)OC(=O)N[C@@H]1CCN(c2c(F)cc3c(=O)c(C(=O)NCCCN=C(N)N)cn4c3c2Oc2cc3ccccc3cc2-4)C1` [compound 429]: the IC50 is 0.75 µM.
Still for that read-out and setting: with `CN1CCN(CCCNC(=O)c2cn3c4cc5c(cc4oc4c(NCCCN6CCOCC6)c(F)cc(c2=O)c43)c(=O)c2ccccc25)CC1` [compound 209] the figure was 1.75 µM; with `CN1CCCC1CCNc1c(F)cc2c(=O)c(C(=O)O)cn3c2c1Oc1cc2ccccc2cc1-3` (stereo not drawn) [compound 7], 1.75 µM; with `CN(C)CCCCNC(=O)c1cn2c3c(c(NCCN4CCCC4)c(F)cc3c1=O)Oc1cc3ccccc3cc1-2` [compound 317], 1 µM.
Same read-out and setting: the result for `CN1CCN(CCCNc2c(F)cc3c(=O)c(C(=O)N4CCN(C)CC4)cn4c3c2Oc2cc3c(cc2-4)oc2ccccc23)CC1` [compound 154] reads 1.75 µM; that for `CN1CCCC1CCNc1c(F)cc2c(=O)c(C(=O)N3CC[C@@H](N)C3)cn3c2c1Oc1c-3ccc2ccccc12` (stereo partly drawn) [compound 85], 2.5 µM; that for `O=C(Nc1nnc(C(F)(F)F)s1)c1cn2c3c(c(NCCN4CCCC4)c(F)cc3c1=O)Oc1ccccc1-2` [compound 46], 2.5 µM.
Still for that read-out and setting: the result for `CN1CCN(CCCNC(=O)c2cn3c4c(c(NCCCN5CCN(C)CC5)c(F)cc4c2=O)Oc2cc4ccccc4cc2-3)CC1` [compound 342] reads 0.9 µM; that for `CC1CCN(CCCNC(=O)c2cn3c4c(c(N5CCC(NC(=O)OC(C)(C)C)C5)c(F)cc4c2=O)Oc2cc4ccccc4cc2-3)CC1` (stereo not drawn) [compound 243], 1.75 µM.
In the case of `CN(C)CCCCNC(=O)c1cn2c3c(c(NCCCCN(C)C)ccc3c1=O)Oc1cc3ccccc3cc1-2` [compound 277], the IC50 stood at 1.75 µM.
The same measure, in the same setting: with `N=C(N)NCC1CCCC(CNC(=O)c2cn3c4c(c(NCCCN5CCOCC5)c(F)cc4c2=O)Oc2cc4ccccc4cc2-3)C1` (stereo not drawn) [compound 331] the figure was 1 µM; with `O=C(NCCCn1ccnc1)c1cn2c3c(c(NCCCN4CCOCC4)c(F)cc3c1=O)Oc1cc3c(cc1-2)-c1ccccc1C3` [compound 314], 1 µM.
Still for that read-out and setting: the result for `CN(C)CCCCNc1c(F)cc2c(=O)c(C(=O)NCCCN3CCOCC3)cn3c2c1Oc1c-3ccc2ccccc12` [compound 400] reads 0.75 µM.
Same read-out and setting: the result for `CN(C)CCCCNc1c(F)cc2c(=O)c(C(=O)NCCCN3CCN(C)CC3)cn3c2c1Oc1c-3ccc2ccccc12` [compound 478] reads 0.53 µM; that for `CN(C)CCCCNC(=O)c1cn2c3cc4c(=O)c5ccccc5c(=O)c4cc3oc3c(NCCC4CCCN4C)c(F)cc(c1=O)c32` (stereo not drawn) [compound 347], 0.9 µM.
Turning to `CN1CCCC1CCNC(=O)c1cn2c3c(c(N)c(F)c(N4CC[C@H](N)C4)c3c1=O)Oc1cc3ccccc3cc1-2` (stereo partly drawn) [compound 189], the IC50 worked out at 1.75 µM.
Still for that read-out and setting: with `CN1CCN(CCCNC(=O)c2cn3c4c(c(NCCC5CCCN5C)c(F)cc4c2=O)Oc2cc4ccccc4cc2-3)CC1` (stereo not drawn) [compound 123] the figure was 1.75 µM.
The same measure, in the same setting: with `N[C@@H]1CCN(C(=O)c2cn3c4c(c(NCCN5CCCC5)c(F)cc4c2=O)Oc2c-3ccc3ccccc23)C1` [compound 86] the figure was 2.5 µM; with `CN(C)CCCCNC(=O)c1cn2c3c(c(N)c(F)c(N4CC[C@H](N)C4)c3c1=O)Oc1cc3ccccc3cc1-2` [compound 190], 1.75 µM; with `CN(C)CCCCNC(=O)c1cn2c3c(c(N4CCC(N)C4)ccc3c1=O)Oc1cc3ccccc3cc1-2` (stereo not drawn) [compound 589], 0.18 µM.
As for `CC(C)(C)OC(=O)N[C@@H]1CCN(c2c(F)cc3c(=O)c(C(=O)NCCCN)cn4c3c2Oc2cc3ccccc3cc2-4)C1` [compound 428], the IC50 is 0.75 µM.
Still for that read-out and setting: the result for `CC(C)(C)OC(=O)N[C@H]1CCN(c2c(F)cc3c(=O)c(C(=O)NCCCN4CCOCC4)cn4c5cc6c(cc5oc2c34)c(=O)c2ccccc26)C1` [compound 204] reads 1.75 µM.
Same read-out and setting: with `CN1CCCC1CCNC(=O)c1cn2c3c(c(NCCCn4ccnc4)c(F)cc3c1=O)Oc1cc3ccccc3cc1-2` (stereo not drawn) [compound 335] the figure was 1 µM.
The same measure, in the same setting: with `O=C(CCN1CCOCC1)N[C@@H]1CCN(c2c(F)cc3c(=O)c(C(=O)NCCN4CCCC4)cn4c3c2Oc2cc3c(cc2-4)oc2ccccc23)C1` [compound 404] the figure was 0.75 µM; with `N=C(N)NCCCNC(=O)c1cn2c3c(c(NCCN4CCCC4)c(F)cc3c1=O)Oc1cc3ccccc3cc1-2` [compound 333], 1 µM.
Consider `N[C@H]1CCN(C(=O)c2cn3c4cc5c(cc4oc4c(NCCCN6CCOCC6)c(F)cc(c2=O)c43)c(=O)c2ccccc25)C1` [compound 216], for which the IC50 amounted to 1.75 µM.
Same read-out and setting: with `CC1CCCCN1CCCNc1c(F)cc2c(=O)c(C(=O)NCCC3CCCN3C)cn3c2c1Oc1cc2ccccc2cc1-3` (stereo not drawn) [compound 557] the figure was 0.375 µM; with `CN1CCCC1CCNc1c(F)cc2c(=O)c(C(=O)NCCCN3CCOCC3)cn3c2c1Oc1cc2ccccc2cc1-3` (stereo not drawn) [compound 122], 1.75 µM; with `CC(C)NCCCNc1c(F)cc2c(=O)c(C(=O)N3CCOCC3)cn3c2c1Oc1cc2ccccc2cc1-3` [compound 316], 1 µM.
The same measure, in the same setting: the result for `CC1CCCC(C)N1CCCNC(=O)c1cn2c3c(c(N4CCC(N)C4)c(F)cc3c1=O)Oc1cc3ccccc3cc1-2` (stereo not drawn) [compound 337] reads 1 µM.
The same measure, in the same setting: the result for `O=C(O)c1cn2c3c(c(NCC4CCCO4)c(F)cc3c1=O)Oc1cc3ccccc3cc1-2` (stereo not drawn) [compound 1] reads 4 µM; that for `NC1CCN(c2c(F)cc3c(=O)c(C(=O)NCC(O)CO)cn4c3c2Oc2cc3ccccc3cc2-4)C1` (stereo not drawn) [compound 300], 1.75 µM; that for `CN1CCCC1CCNC(=O)c1cn2c3c(c(NCCCN4CCOCC4)c(F)cc3c1=O)Oc1cc3ccccc3cc1-2` (stereo not drawn) [compound 51], 2.5 µM.
Take `CN1CCN(C(=O)c2cn3c4c(c(NCCC5CCCN5C)c(F)cc4c2=O)Oc2c-3ccc3ccccc23)CC1` (stereo not drawn) [compound 75]: the IC50 was 2.5 µM.
For the compound `CN1CCCC1CCNC(=O)c1cn2c3c(c(N4CCC(NC(=O)OC(C)(C)C)C4)c(F)cc3c1=O)Oc1cc3ccccc3cc1-2` (stereo not drawn) [compound 213], the IC50 is 1.75 µM.
On to `CC(C)(C)OC(=O)N[C@@H]1CCN(c2c(F)cc3c(=O)c(C(=O)NCCN4CCCC4)cn4c3c2Oc2cc3ccccc3cc2-4)C1` [compound 121], for which the IC50 came to 1.75 µM.
Still for that read-out and setting: with `CN(C)CCCCNc1c(F)cc2c(=O)c(C(=O)NCCN3CCCC3)cn3c4cc5oc6cc([N+](=O)[O-])ccc6[nH]c5cc4oc1c23` [compound 586] the figure was 0.18 µM.
